Reference: patent US7879866B2, “Inhibition of the activity of the capsaicin receptor in the treatment of obesity or obesity-related diseases and disorders” (Dorte Xenia Gram, priority 2004, dated 2011)

Key:
capsaicin receptor = target: T1, capsaicin receptor (Rattus norvegicus, UniProt O35433); details: literature refs 22, 23; cited from earlier work
T1 construct: host or cells: whole animal (in vivo pain models)

male Zucker obese rats = experiment: Oral glucose tolerance test (OGTT) and glucose stimulated insulin secretion after oral BCTC; format: in vivo, rat; details: 6 month old male Zucker obese rats; BCTC 15 mg/kg p.o. at -30 min; glucose 2 g/kg po at time 0; vs vehicle
Description: Laboratory animals: Male (n=19) Zucker obese rats were purchased from Charles River Laboratories, U.S. The rats were transported to Denmark at the age of 6 weeks and were kept under ambient controlled conditions on a normal day light cycle (lights on at 6 am, lights off at 6 pm) at the Måløv Animal Unit at Novo Nordisk A/S, Denmark from then and until the age of 9 month of age. The rats were kept in groups of 3 rats per cage until the end of the experiment in standard cages (Eurostandard Type IV, Techniplast, Scanbur, Denmark) and were given free access to acidified (0.4% citric acid) tap water and standard chow (Altromin, Brogaarden Aps, Denmark). The cages were supplied with wooden wool (Brogaarden, Denmark) as nesting material and the bedding material was aspen chips (Brogaarden, Denmark), changed twice per week as was the bottles of acidified water.
At 6 month of age, an OGTT was performed shortly after administering a capsaicin receptor antagonist (BCTC) orally. […] Fasting blood glucose and plasma insulin was determined as described below. […] The rats were left in the cage until time 0 where blood glucose was assessed followed by the OGTT. […] Blood glucose and plasma insulin was determined at time 30, 60 and 120 min after glucose. […] Following the experiment, glucose was determined using the glucose oxidase method (EBIO, Eppendorf, Germany). […]

F4/80 = experiment: Relative gene expression of F4/80 in mesenteric adipose tissue (quantitative RT-PCR); format: in vivo, rat; details: 9 month old Zucker obese rats; 1 hour after BCTC 15 mg/kg po; vehicle as calibrator, 36B4 internal standard
Protocol: (§1) At 9 months of age, the same rats were tested re. mesenteric inflammatory mediators. The rats were fasted for 18 hours where after they were given BCTC at 15 mg/kg (n=10) or vehicle (n=9) orally by gavage. One hour after treatment, the rats were anaesthetized in isoflurane and decapitated. The mesenteric adipose tissue was quickly removed and transferred to 10× volume pre-chilled RNAlater (Sigma-Aldrich, USA) and stored at −20° C. To prevent area to area effect on gene expressions patterns, 0, 5-1 g tissue was homogenized in TRIzol Reagent (1 ml/100 mg tissue) (TRIzol; Invitrogen Corp.). […] PCR amplification mixtures (25 μl) contained 12.5 μl of 2× Platinum Quantitative PCR SuperMix-UDG (Invitrogen Corp.), 0.625 μl of reverse primer (20 μM), 0.625 μl forward primers (20 μM), 0.625 μl Probe (10 μM) (ProbeLibrary Exiqon A/S, Denmark) and 5 μl diluted cDNA template. Real-time quantitative PCR was carried out using MX3000P PCR machine (Stratagene, USA) with the following cycling parameters: polymerase activation for 10 minutes at 95° C. and amplification for 40 cycles of 30 seconds at 95° C. and 60 seconds at 60° C. […]
(§2) Relative gene expression of iNOS and F4/80 were determined by quantitative RT-PCR comparative Ct method (Applied Biosystems. User Bulletin #2. ABI PRISM 7700 sequence detection system, 1997) using vehicle as calibrator. […]

iNOS = experiment: Relative gene expression of iNOS in mesenteric adipose tissue (quantitative RT-PCR); format: in vivo, rat; details: 9 month old Zucker obese rats; 1 hour after BCTC 15 mg/kg po; vehicle as calibrator, 36B4 internal standard
Protocol: as §1, §2

T1 sequence (O35433 whole entry): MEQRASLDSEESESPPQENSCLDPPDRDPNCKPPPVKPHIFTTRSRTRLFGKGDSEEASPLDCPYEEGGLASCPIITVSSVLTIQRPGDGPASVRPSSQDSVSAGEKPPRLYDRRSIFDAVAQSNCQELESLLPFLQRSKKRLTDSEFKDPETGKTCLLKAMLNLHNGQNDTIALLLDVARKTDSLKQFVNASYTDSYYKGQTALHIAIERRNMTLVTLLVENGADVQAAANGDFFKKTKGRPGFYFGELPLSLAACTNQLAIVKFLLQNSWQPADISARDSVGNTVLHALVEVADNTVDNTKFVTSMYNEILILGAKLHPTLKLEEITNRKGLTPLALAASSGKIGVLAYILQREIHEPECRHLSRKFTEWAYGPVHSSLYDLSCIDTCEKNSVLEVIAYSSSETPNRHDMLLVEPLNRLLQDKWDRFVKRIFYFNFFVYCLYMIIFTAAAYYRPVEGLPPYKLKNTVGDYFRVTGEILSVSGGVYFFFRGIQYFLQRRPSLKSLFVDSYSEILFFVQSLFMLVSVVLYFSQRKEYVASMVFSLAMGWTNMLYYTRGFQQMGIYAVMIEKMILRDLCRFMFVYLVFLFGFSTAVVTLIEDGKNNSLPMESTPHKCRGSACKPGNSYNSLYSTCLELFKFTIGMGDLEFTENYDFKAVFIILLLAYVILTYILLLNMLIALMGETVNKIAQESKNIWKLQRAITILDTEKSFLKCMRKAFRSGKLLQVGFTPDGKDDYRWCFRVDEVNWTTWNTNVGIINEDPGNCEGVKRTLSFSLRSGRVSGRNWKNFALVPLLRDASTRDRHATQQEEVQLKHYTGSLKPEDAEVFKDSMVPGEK

In the case of `CC(C)(C)c1ccc(NC(=O)N2CCN(c3ncccc3Cl)CC2)cc1` [BCTC, N-(4-tertiarybutylphenyl)-4-(3-chloropyridin-2-yl)tetrahydropyrazine-1(2H)-carbox-amide], the “inhibiting capsaicin-mediated hyperalgesia, inflammatory hyperalgesia or allodynia, and hyperalgesia after nerve injury” value (capsaicin receptor) is given as “shown effective”, the “blood glucose after oral glucose tolerance test” value (male Zucker obese rats) is given as “diminished rise in blood glucose” and the “plasma insulin after oral glucose load (glucose stimulated insulin response)” value (male Zucker obese rats) is given as “considerable higher levels of insulin in plasma”. For the same molecule, the “gene expression of F4/80 in mesenteric adipose tissue” value (F4/80) was “significantly lower level” and the “gene expression of iNOS in mesenteric adipose tissue” value (iNOS) was “significantly lower level”.
